Earlier results as cited in patent US20250090617A1, “FORMULATIONS FOR TREATING OBESITY AND DIABETES AND FOR PROVIDING OTHER HEALTH RELATED BENEFITS” (Healthrite Partners, LLC, priority 2019, published 2025).

System: cellular ATP
Conditions: several studies, including clinical studies in humans

In the case of `OC[C@H]1O[C@@H](n2cnc3c(O)ncnc32)[C@H](O)[C@@H]1O` [Inosine], the “effect on cellular ATP” value is listed as “did not affect ATP levels”.

For `Oc1ncnc2[nH]ncc12` [Allopurinol], the “effect on cellular ATP” value is given as “increase in cellular ATP”.

In the case of `Cc1nc(-c2ccc(OCC(C)C)c(C#N)c2)sc1C(=O)O` [Febuxostat], the “effect on cellular ATP” value is given as “increase in cellular ATP”.
